This is an account of results in article PMC12040169 (PLOS Biology, 2025).

A word on the viability: it is a read-out of living cells in per cent, often relative to untreated cells.

This data set is described as follows: in vitro. The conditions noted are these: human, hela cells, % viability.

For `CCC1(CC)OC(N[C@@H](C)c2ccc3ccccc3c2)=NC1=O` [CBK123982], the viability at 28.5 h, 10 µM amounted to 90.2%.

In the case of `Cc1ccccc1CN1CCC(O)(c2cccnc2F)CC1` [CBK284376], the viability at 28.5 h, 10 µM worked out at 96%.

As for `O=C(NCCC1SC(NC2CCCCCC2)=NC1=O)Nc1ccc(F)cc1F` (stereo not drawn) [CBK067469], the viability at 28.5 h, 10 µM turned out to be 99.7%.

For the compound `Cc1cc(C)cc(C(=O)N(CCc2ccccc2)C2CC3CCC(C2)N3C)c1` (stereo not drawn) [CBK262612C], the viability at 28.5 h, 10 µM is 83.7%.

For the compound `NNC(=O)COc1ccc2ccccc2c1` [CBK261208], the viability at 28.5 h, 10 µM stood at 104%.

Turning to `COc1ccc(NC(=N)Nc2nc(=O)cc(CSc3nc4ccccc4s3)[nH]2)cc1` [CBK266256], the viability at 28.5 h, 10 µM is 101%.

Consider `O=C(O)C1CSC(c2cc3ccccc3o2)N1` (stereo not drawn) [CBK019502], for which the viability at 28.5 h, 10 µM came to 93.7%.

As for `c1cc(-c2ccc3c(c2)COC2(CCNCC2)O3)ccn1` [CBK060867], under “bulk resorufin, single well”, the viability at 28.5 h, 10 µM is 99%.

For `Brc1ccsc1-c1csc(-c2ccccc2)n1` [CBK019859], the viability at 28.5 h, 10 µM came to 102%.

Turning to `O=C(NC(N1CCOCC1)C(Cl)(Cl)Cl)c1ccc(Cl)cc1` (stereo not drawn) [CBK261084], the viability at 28.5 h, 10 µM was determined as 94.2%.

For the compound `CCN(CC)CCn1c2ccc(C)cc2c2nc(C)sc21` [CBK269764C], the viability at 28.5 h, 10 µM worked out at 99.7%.

For the compound `Cc1ccc2oc(C(=O)N(CCO)CCc3ccncc3)c(C)c2c1` [CBK281642], the viability at 28.5 h, 10 µM was determined as 106%.

Turning to `Cn1c(=O)sn(-c2ccccc2)c1=O` [CBK113677], the viability at 28.5 h, 10 µM was found to be 115%.

As to `O=C(CCc1c[nH]c2ccccc12)OCc1nnc(-c2ccccc2)o1` [CBK269642], the viability at 28.5 h, 10 µM stood at 101%.

Regarding `Cn1c(C(=O)NCCc2cnccn2)cc2cc(Cl)ccc21` [CBK281575], the viability at 28.5 h, 10 µM turned out to be 90.9%.

With `COc1cc2c(cc1OC)/C(=C/c1ccc[nH]1)C(=O)N2` [CBK018342], the viability at 28.5 h, 10 µM amounted to 57.7%.

`CC(=O)N1C[C@@H](c2ccsc2)[C@@H]2CN(Cc3ccccc3)CC[C@@H]21` [CBK284585]: the viability at 28.5 h, 10 µM was determined as 109%.

Consider `NC(=O)c1cccnc1N1CCNCC1` [CBK025310C], for which the viability at 28.5 h, 10 µM was 85.8%.

With `O=C(CCn1cccn1)N1CCC(c2cc3ncccc3[nH]2)CC1` [CBK284457], the viability at 28.5 h, 10 µM stood at 83.6%.

In the case of `CC(C)[C@H](CO)Nc1nccnc1-c1ccccc1F` [CBK037987], the viability at 28.5 h, 10 µM was found to be 106%.

Regarding `CC1CCc2c(sc3ncnc(OCC(=O)N4CCOCC4)c23)C1` (stereo not drawn) [CBK306000], the viability at 28.5 h, 10 µM turned out to be 95.9%.

With `O=C(O)CCCC(=O)Nc1ccccc1C(=O)NCc1ccco1` [CBK299840], the viability at 28.5 h, 10 µM was determined as 85.8%.

Regarding `CCOC(=O)C1=NOC2COC3(CCN(c4ncccn4)CC3)OCC12` (stereo not drawn) [CBK018602], the viability at 28.5 h, 10 µM turned out to be 94.3%.

Turning to `O=C1CCC(=O)N1CCOc1nccnc1N1CCN(Cc2ccc([N+](=O)[O-])cc2)CC1` [CBK084294], the viability at 28.5 h, 10 µM came out at 93%.

On to `Nc1nc(O)cc(C2CCN(CCOc3ccccc3F)C2)n1` (stereo not drawn) [CBK304726], for which the viability at 28.5 h, 10 µM worked out at 102%.

On to `O=C(c1ccncc1)C12CN3CN(CN(C3)C1)C2` [CBK261451], for which the viability at 28.5 h, 10 µM is 97.6%.

Turning to `Cc1ccc(Cn2nc(C(=O)NCC3COc4ccccc4O3)c3ccccc32)cc1` (stereo not drawn) [CBK047831], the viability at 28.5 h, 10 µM (bulk resorufin, single well) is 91.2%.

As to `Cn1ccnc1CN1C[C@@H]2CN(C(=O)C3CCCC3)C[C@]2(C(=O)O)C1` [CBK307201], the viability at 28.5 h, 10 µM was determined as 102%.

For the compound `CC(C)C(NS(=O)(=O)c1ccccc1)C(=O)Nc1ccccc1` (stereo not drawn) [CBK270001], the viability at 28.5 h, 10 µM was found to be 87.8%.

As to `CCc1nc2cc(NC(=O)Cn3cc(C)cn3)ccc2n1CC` [CBK281608], the viability at 28.5 h, 10 µM was determined as 84.9%.

Consider `CCCCc1cc(=O)[nH]c(N2CCOCC2)n1` [CBK003851], for which the viability at 28.5 h, 10 µM is 102%.

As to `c1ccc(CNc2nc(-c3ccco3)cn3ccnc23)cc1` [CBK037955], the viability at 28.5 h, 10 µM came out at 90.6%.

On to `COc1cc(C(=O)NC/C=N/O)cc(OC)c1OC` [CBK015662], for which the viability at 28.5 h, 10 µM stood at 90%.

On to `Cc1cc(C)cc(Nc2c([N+](=O)[O-])nn(-c3cccc(Cl)c3)[n+]2[O-])c1` [CBK268254], for which the viability at 28.5 h, 10 µM is 105%.

`CCc1cc(CNC(=O)C2CN(Cc3ccc(Cl)cc3)C2)on1` [CBK281564]: the viability at 28.5 h, 10 µM worked out at 97.8%.

For the compound `Cc1ccc(-c2cc(C(=O)NCc3cccnc3)c3ccccc3n2)cc1C` [CBK265402], the viability at 28.5 h, 10 µM came out at 97.5%.

Consider `Cc1cc2c(=O)n(Cc3ccco3)c(SCc3nc4ccccc4[nH]3)nc2s1` [CBK268202], for which the viability at 28.5 h, 10 µM was 88.2%.

Turning to `CCN(NC(=O)c1cc2cccc(OC)c2o1)c1ccc(C)cc1` [CBK161484], the viability at 28.5 h, 10 µM is 106%.

For the compound `CN(C)CCN1CCN(c2ccc(-c3ccsc3)cn2)CC1` [CBK036915], the viability at 28.5 h, 10 µM was determined as 96.2%.

In the case of `Cc1ccc(Nc2cc(-c3cccc4cccnc34)ncn2)cc1NS(C)(=O)=O` [CBK091152], the viability at 28.5 h, 10 µM came out at 92.4%.

In the case of `CC(=O)Nc1ccc(S(=O)(=O)N2CCN(S(=O)(=O)N3CCCCCC3)CC2)cc1` [CBK268983], the viability at 28.5 h, 10 µM amounted to 99.3%.

Consider `CC(C)(C)OC(=O)NC1CCC(NCc2cc(F)cc(F)c2)CC1` (stereo not drawn) [CBK056689], for which the viability at 28.5 h, 10 µM was 91.3%.

For `Cc1nnc(SCC(=O)Nc2ccc(CN3CCOCC3)cc2)n1C` [CBK306092], the viability at 28.5 h, 10 µM stood at 102%.

As for `CC(=O)Nc1cccc(CN(CCCCO)C2CC2)c1` [CBK304806], the viability at 28.5 h, 10 µM came to 91.6%.

With `c1cc(CSc2nnc(-c3ccncc3)o2)ccn1` [CBK270235], the viability at 28.5 h, 10 µM is 92.3%.

In the case of `COc1ccc(NC(=O)N2CC[C@H]3CC(=O)N(CCN4CCNC4=O)CC[C@H]3C2)cc1` [CBK288797], the viability at 28.5 h, 10 µM turned out to be 86.8%.

With `COc1ccc(CN(Cc2ccc(OC)cc2)Cc2ccc(S(=O)(=O)N3CCOC3=O)cc2)cc1` [CBK014818], the viability at 28.5 h, 10 µM turned out to be 110%.

As to `CC(=O)Nc1ccc(S(=O)(=O)N2CCN(S(=O)(=O)c3ccccc3)CC2)cc1` [CBK264163], the viability at 28.5 h, 10 µM is 94%.

Turning to `CCCC/C=C/c1cncc(NCc2ccc(OC)cc2)n1` [CBK037933], the viability at 28.5 h, 10 µM came to 96.7%.

As for `Cc1ccc(-c2csc3ncn(Cc4ccccc4C)c(=O)c23)cc1C` [CBK099921], the viability at 28.5 h, 10 µM was found to be 104%.

With `O=c1[nH]c2cc(Cl)cc(Cl)c2o1` [CBK015711], the viability at 28.5 h, 10 µM was 90.6%.

Regarding `CC(C)(C)OC(=O)NCc1ccc(-c2ccc(Nc3cccnc3)nc2)cc1` [CBK037804], the viability at 28.5 h, 10 µM came to 95.3%.

For the compound `O=C(O)CSCC(=O)N1CCN(c2ccc(F)cc2)CC1` [CBK057269], the viability at 28.5 h, 10 µM stood at 98%.

As to `CN(C)c1cc(=O)c2cc3c(cc2o1)CCC3` [CBK010017], the viability at 28.5 h, 10 µM was determined as 67.2%.

Turning to `Cc1ccc(-c2csc3ncnc(SCc4csc(C)n4)c23)cc1` [CBK267244], the viability at 28.5 h, 10 µM was 91.7%.

As to `Clc1ccc(CN2CCN(CCc3ccccc3)CC2)cc1Cl` [CBK126420], the viability at 28.5 h, 10 µM is 96.3%.

As to `CSCCCNC(=O)N(Cc1cccnc1)Cc1ccc2c(c1)OCO2` [CBK159426], the viability at 28.5 h, 10 µM amounted to 92.7%.

Consider `CCOCCCNC(=O)c1ccc(-c2cc(Oc3ccc(OC)cc3)ncn2)cc1` [CBK291209], for which the viability at 28.5 h, 10 µM stood at 100%.

For `O=c1nc2n(Cc3ccccc3)c3ccccc3cc-2c(=O)[nH]1` [CBK287958], the viability at 28.5 h, 10 µM was 79.8%.

On to `Cc1ccc2c(c1)C1(CCN(CC3CC3)CC1)NC(=O)C2` [CBK040217], for which the viability at 28.5 h, 10 µM came out at 94.8%.

Consider `Cc1cc(Nc2ccccc2C)c2cc(C(=O)O)ccc2n1` [CBK269458C], for which the viability at 28.5 h, 10 µM came to 103%.

Regarding `COc1ccc(Cn2c(C3CCNCC3)cc3cccnc32)cc1` [CBK285077], the viability at 28.5 h, 10 µM worked out at 96.1%.

`COc1cc2c(cc1OC)C(C)N(S(=O)(=O)c1cn(C)cn1)CC2` (stereo not drawn) [CBK057314]: the viability at 28.5 h, 10 µM is 112%.

For the compound `c1ccc([C@@H]2CN(CC3CCOC3)C[C@H]2c2cc[nH]n2)cc1` (stereo partly drawn) [CBK285163], the viability at 28.5 h, 10 µM is 110%.

As to `CCN(CC)C(=O)c1ccccc1NS(=O)(=O)c1ccc(F)cc1` [CBK045414], the viability at 28.5 h, 10 µM stood at 87.7%.

Take `CN1CCC(C(=O)N2CCCc3ccccc32)CC1` [CBK200260]: the viability at 28.5 h, 10 µM was 95%.

For the compound `Cc1cc(O)n2nc(CC(=O)NCCCn3c(C)cccc3=O)nc2n1` [CBK306532], the viability at 28.5 h, 10 µM amounted to 97.1%.

As to `O=C(O)C1CCN(C(=O)CSc2nnc(-c3ccccc3F)n2C2CCCC2)CC1` [CBK296971], the viability at 28.5 h, 10 µM was determined as 115%.

For `CCNc1nc2c(c(=O)[nH]c(=O)n2C)n1CCCc1ccccc1` [CBK269243], the viability at 28.5 h, 10 µM was 94.6%.

As to `Oc1cccc(-c2cc(CC3(NCc4ccc(F)cc4)COC3)no2)c1` [CBK289646], the viability at 28.5 h, 10 µM amounted to 108%.

In the case of `CC(C)Nc1cc(SC2CCCCC2)ncn1` [CBK107163], the viability at 28.5 h, 10 µM stood at 92.4%.

As for `CN1CCN(c2ccccc2NC(=S)NC(=O)c2ccc(N3CCCCC3)c([N+](=O)[O-])c2)CC1` [CBK268520C], the viability at 28.5 h, 10 µM turned out to be 121%.

Consider `O=c1cc(N2CCOCC2)oc2ccccc12` [CBK008244G], for which the viability at 28.5 h, 10 µM is 71.5%.

As to `CCN(CC)C(=O)CCCc1[nH]nc(O)c1Cc1c(Cl)cccc1Cl` [CBK081524], the viability at 28.5 h, 10 µM was 89%.

Take `O=C(O)CCC(=O)N1N=C2C(=Cc3ccc(F)cc3)CCCC2C1c1ccc(F)cc1` (stereo not drawn) [CBK296066]: the viability at 28.5 h, 10 µM worked out at 93%.

As to `Cc1ccc(C(=O)NCc2ccc(-c3n[nH]cc3C(=O)N(C)Cc3ccccc3)cc2)cc1` [CBK285598], the viability at 28.5 h, 10 µM is 100%.

Consider `COc1cccc([C@H]2CN(C(=O)c3ccccc3)[C@@H]3CCN(Cc4ccccc4F)C[C@H]23)c1` [CBK285608], for which the viability at 28.5 h, 10 µM was determined as 97.6%.

Consider `C=CCn1c(Cc2csc(NC(=O)c3ccc(OC)c(OC)c3)n2)n[nH]c1=S` [CBK295324], for which the viability at 28.5 h, 10 µM came to 102%.

Regarding `Nc1ccc(-c2cc(N)n(-c3ccc(Oc4ccccc4)c(S(=O)(=O)O)c3)n2)cc1` [CBK261563], the viability at 28.5 h, 10 µM is 96.1%.

In the case of `c1cncc(-c2cn3ccnc3c(NC3CCCCC3)n2)c1` [CBK093606], the viability at 28.5 h, 10 µM was determined as 84.6%.

For `CCN(CC)C(=O)NC(C)c1cccc(S(=O)(=O)NC)c1` (stereo not drawn) [CBK305134], the viability at 28.5 h, 10 µM came to 94.4%.
